Reference: US8084479B2, “Thiazole compounds and methods of use” (Amgen Inc., priority 2006, dated 2011)
Where a name gives a salt, the structure may show the parent alone.

biological target: PKBα (Homo sapiens, UniProt P31749); assay: PKB kinase assay (P33-labeled ATP, peptide substrate, filter plate); format: biochemical; settings: PKBα enzyme (full length or kinase domain with pleckstrin domain deleted)
Excerpt: The kinase assay for evaluating PKB activity comprises active PKB enzymes, a PKB specific substrate, and P^33-labeled ATP. […] The phosphorylated substrate was captured by a phosphocellulose membrane filter plate (MLLIPORE) and measured by a Wallac Microbeta liquid scintillation counter (Perkin Elmer).

Sequence of PKBα (P31749 118-480 limits assumed): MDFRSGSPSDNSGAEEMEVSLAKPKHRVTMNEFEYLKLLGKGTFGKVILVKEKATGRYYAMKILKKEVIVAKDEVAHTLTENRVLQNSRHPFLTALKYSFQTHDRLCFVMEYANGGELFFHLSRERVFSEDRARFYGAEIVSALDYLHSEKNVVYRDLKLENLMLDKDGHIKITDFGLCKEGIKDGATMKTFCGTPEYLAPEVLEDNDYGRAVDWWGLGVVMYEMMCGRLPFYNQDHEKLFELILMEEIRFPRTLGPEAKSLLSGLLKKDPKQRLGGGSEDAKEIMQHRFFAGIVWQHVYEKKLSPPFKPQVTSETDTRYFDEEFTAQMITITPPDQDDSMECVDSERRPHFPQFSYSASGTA

| IC50 | SMILES |
| --- | --- |
| 1 to 10 µM | Cn1c(=O)[nH]c2ccc(-c3cnc(NC[C@@H](N)Cc4cc(F)cc(F)c4)s3)cc21 [Example 162, 6-(2-((S)-2-amino-3-(3,5-difluorophenyl)propylamino)thiazol-5-yl)-1-methyl-1H-benzo[d]imidazol-2(3H)one] |
| 1 to 10 µM | N[C@H](CNc1nc(C2CCCO2)c(-c2ccc3c(c2)CC(=O)N3)s1)Cc1ccc(Cl)cc1 (stereo partly drawn) [Example 197, 5-(2-((S)-2-Amino-3-(4-chlorophenyl)propylamino)-4-(tetrahydrofuran-2-yl)thiazol-5-yl)indolin-2-one] |
| < 0.05 µM | NC(CNc1ncc(-c2ccc3cnccc3c2)s1)Cc1ccc(C(F)(F)F)cc1F (centres unmarked) [Example 177, N-(-2-amino-3-(2-fluoro-4-(trifluoromethyl)phenyl)propyl)-5-(isoquinolin-6-yl)thiazol-2-amine] |
| < 0.05 µM | N[C@H](CNc1ncc(-c2cc3ccncc3s2)s1)Cc1ccc(C(F)(F)F)cc1 [Example 108, N—((S)-2-amino-3-(4-(trifluoromethyl)phenyl)propyl)-5-(thieno[2,3-c]pyridin-2-yl)thiazol-2-amine] |
| < 0.05 µM | C/C=C/[C@@H](c1ccc(C(F)(F)F)cc1)[C@H](N)CNc1ncc(-c2ccc3cnccc3c2)s1 [Example 154, N-((2S,3S,E)-2-amino-3-(4-(trifluoromethyl)phenyl)hex-4-enyl)-5-(isoquinolin-6-yl)thiazol-2-amine] |
| 0.05 to 1 µM | N[C@H](CNc1nc(-c2cccnc2)c(-c2ccc3cnccc3c2)s1)Cc1ccc(C(F)(F)F)cc1 [Example 104, N—((S)-2-Amino-3-(4-(trifluoromethyl)phenyl)propyl)-5-(isoquinolin-6-yl)-4-(pyridin-3-yl)thiazol-2-amine] |
| 1 to 10 µM | CS(=O)(=O)NCC#Cc1nc(NC[C@@H](N)Cc2ccc(C(F)(F)F)cc2)sc1-c1ccc2cnccc2c1 [Example 151, N-(3-(2-((S)-2-amino-3-(4-(trifluoromethyl)phenyl)propylamino)-5-(isoquinolin-6-yl)thiazol-4-yl)prop-2-ynyl)methanesulfonamide] |
| < 0.05 µM | NC(CNc1ncc(-c2ccc3[nH]c(=O)oc3c2)s1)Cc1ccc(C(F)(F)F)cc1F (centres unmarked) [Example 178, 6-(2-(-2-amino-3-(2-fluoro-4-(trifluoromethyl)phenyl)propylamino)thiazol-5-yl)benzo[d]oxazol-2(3H)-one] |
| < 0.05 µM | N[C@H](CNc1ncc(-c2ccc3cnccc3c2)s1)Cc1ccc(Cl)c(Cl)c1 [Example 132, N—((S)-2-Amino-3-(3,4-dichlorophenyl)propyl)-5-(isoquinolin-6-yl)thiazol-2-amine] |
| 0.05 to 1 µM | N[C@H](CNc1ncc(-c2ccc3[nH]c(=O)sc3c2)s1)Cc1c[nH]c2ccccc12 [Example 35, 6-(2-((S)-2-amino-3-(1H-indol-3-yl)propylamino)thiazol-5-yl)benzo[d]thiazol-2(3H)-one] |
| 1 to 10 µM | N[C@H](CNc1ncc(-c2ccc3c(c2)CC(=O)N3)s1)Cc1c[nH]c2ccccc12 [Example 74, 5-(2-((S)-2-amino-3-(1H-indol-3-yl)propylamino)thiazol-5-yl)indolin-2-one ditrifluoroacetate] |
| 1 to 10 µM | N[C@H](CNc1nc(C#CC2=CCCC2)c(-c2ccc3cnccc3c2)s1)Cc1ccc(C(F)(F)F)cc1 [Example 147, N—((S)-2-amino-3-(4-(trifluoromethyl)phenyl)propyl)-4-(2-cyclopentenylethynyl)-5-(isoquinolin-6-yl)thiazol-2-amine] |
| < 0.05 µM | N[C@H](CNc1ncc(-c2ccc3[nH]c(=O)oc3c2)s1)Cc1ccc(C(F)(F)F)nc1 [Example 172, 6-(2-((S)-2-amino-3-(6-(trifluoromethyl)pyridine-3-yl)propylamino)thiazol-5-yl)benzo[d]oxazol-2(3H)-one] |
| 1 to 10 µM | N[C@H](CNc1nc(C(=O)NCCO)c(-c2ccc3cnccc3c2)s1)Cc1ccc(C(F)(F)F)cc1 [Example 119, 2-((S)-2-Amino-3-(4-(trifluoromethyl)phenyl)-propylamino)-N-(2-hydroxyethyl)-5-(isoquinolin-6-yl)thiazole-4-carboxamide] |
| 0.05 to 1 µM | C[C@@H](c1ccccc1)[C@H](N)CNc1ncc(-c2ccc3cnccc3c2)s1 [Example 91, N-((2S,3S)-2-Amino-3-phenylbutyl)-5-(isoquinolin-6-yl)thiazol-2-amine] |
| 0.05 to 1 µM | N[C@H](CNc1ncc(-c2ccc3c(c2)/C(=C\c2cnc[nH]2)C(=O)N3)s1)Cc1c[nH]c2ccccc12 (stereo in doubt) [Example 73, (E)-3-((1H-imidazol-5-yl)methylene)-6-(2-((S)-2-amino-3-(1H-indol-3-yl)propylamino)thiazol-5-yl)indolin-2-one ditrifluoroacetates] |
| 1 to 10 µM | N[C@H](CNc1nc(-c2ccccc2F)c(-c2ccc3c(c2)CC(=O)N3)s1)Cc1ccc(C(F)(F)F)cc1 [Example 107, 5-(2-((S)-2-Amino-3-(4-(trifluoromethyl)phenyl)-propylamino)-4-(2-fluorophenyl)thiazol-5-yl)indolin-2-one] |
| 0.05 to 1 µM | CCC[C@@H](c1ccc(C(F)(F)F)cc1)[C@H](N)CNc1ncc(-c2ccc3c(c2)CC(=O)N3)s1 [Example 156, 5-(2-((2S,3S)-2-amino-3-(4-(trifluoromethyl)phenyl)hexylamino)thiazol-5-yl)indolin-2-one] |

| IC50 | SMILES |
| --- | --- |
| < 0.05 µM | NC(CNc1ncc(-c2ccc3cnccc3c2)s1)Cc1ccc(OC(F)(F)F)cc1 (centres unmarked) [Example 189, N-(-2-amino-3-(4-(trifluoromethoxy)phenyl)propyl)-5-(isoquinolin-6-yl)thiazol-2-amine] |
| 1 to 10 µM | C[C@H](Nc1ncc(-c2ccc3[nH]c(=O)oc3c2)s1)[C@@H](N)Cc1ccc(C(F)(F)F)cc1 [Example 236, 6-(2-((2S,3S)-3-amino-4-(4-(trifluoromethyl)phenyl)butan-2-ylamino)thiazol-5-yl)benzo[d]oxazol-2(3H)-one] |
| 0.05 to 1 µM | CN(C)C(=O)c1nc(NC[C@@H](N)Cc2ccc(C(F)(F)F)cc2)sc1-c1ccc2cnccc2c1 [Example 194, 2-((S)-2-amino-3-(4-(trifluoromethyl)phenyl)propylamino)-5-(isoquinolin-6-yl)-N,N-dimethylthiazole-4-carboxamide] |
| 0.05 to 1 µM | N[C@H](CNc1nc(-c2ccccc2F)c(-c2ccc3cnccc3c2)s1)Cc1ccc(F)cc1 [Example 106, N—((S)-2-Amino-3-(4-fluorophenyl)propyl)-4-(2-fluorophenyl)-5-(isoquinolin-6-yl)thiazol-2-amine] |
| 1 to 10 µM | C[C@H](Nc1ncc(-c2ccc3[nH]c(=O)n(C)c3c2)s1)[C@@H](N)Cc1ccc(C(F)(F)F)cc1 [Example 237, 6-(2-((2S,3S)-3-amino-4-(4-(trifluoromethyl)phenyl)butan-2-ylamino)thiazol-5-yl)-1-methyl-1H-benzo[d]imidazol-2(3H)-one] |
| 0.05 to 1 µM | Cc1n[nH]c2ccc(-c3cnc(NC[C@@H](N)Cc4c[nH]c5ccccc45)s3)cc12 [Example 2, N—((S)-2-amino-3-(1H-indol-3-yl)propyl)-5-(3-methyl-1H-indazol-5-yl)thiazol-2-amine] |
| 0.05 to 1 µM | COCc1nc(NC[C@@H](N)Cc2ccc(C(F)(F)F)cc2)sc1-c1ccc2[nH]c(=O)n(C)c2c1 [Example 58, 6-(2-((S)-2-amino-3-(4-(trifluoromethyl)phenyl)propylamino)-4-(methoxymethyl)thiazol-5-yl)-1-methyl-1H-benzo[d]imidazol-2(3H)-one] |
| 0.05 to 1 µM | NC(CNc1nc(Cl)c(-c2ccc3cnccc3c2)s1)Cc1ccc(C(F)(F)F)cc1 (centres unmarked) [Example 165] |
| 0.05 to 1 µM | COc1ccc(C[C@H](N)CNc2ncc(-c3nc4ccncc4s3)s2)cc1 [Example 98, N—((S)-2-Amino-3-(4-methoxyphenyl)propyl)-5-(thiazolo[5,4-c]pyridin-2-yl)thiazol-2-amine] |
| 0.05 to 1 µM | COc1ccc(C[C@H](N)CNc2ncc(-c3ccc4c(c3)CC(=O)N4)s2)cc1 [Example 67, 5-(2-((S)-2-amino-3-(4-methoxyphenyl)propylamino)thiazol-5-yl)indolin-2-one] |
| < 0.05 µM | NC(CNc1ncc(-c2ccc3[nH]ncc3c2)s1)Cc1ccc(C(F)(F)F)c(F)c1F (centres unmarked) [Example 190, N-(2-amino-3-(2,3-difluoro-4-(trifluoromethyl)phenyl)propyl)-5-(1H-indazol-5-yl)thiazol-2-amine] |
| 1 to 10 µM | C[C@@H](c1ccccc1)[C@H](N)CNc1ncc(-c2ccc3[nH]c(=O)oc3c2)s1 [Example 88, 6-(2-((2S,3S)-2-Amino-3-phenylbutylamino)thiazol-5-yl)benzo[d]oxazol-2(3H)-one] |
| 0.05 to 1 µM | N[C@H](CNc1ncc(-c2ccc3cnccc3c2)s1)Cc1cc(F)cc(F)c1 [Example 161, N—((S)-2-amino-3-(3,5-difluorophenyl)propyl)-5-(isoquinolin-6-yl)thiazol-2-amine] |
| < 0.05 µM | Cn1c(=O)[nH]c2ccc(-c3cnc(NC[C@@H](N)Cc4ccc(Cl)c(F)c4)s3)cc21 [Example 87, 6-(2-((S)-2-Amino-3-(4-chloro-3-fluorophenyl)propylamino)thiazol-5-yl)-1-methyl-1H-benzo[d]imidazol-2(3H)-one] |
| 0.05 to 1 µM | N[C@H](CNc1ncc(-c2ccc3c(c2)CNC3=O)s1)Cc1ccc(C(F)(F)F)cc1 [Example 240, 5-(2-((S)-2-amino-3-(4-(trifluoromethyl)phenyl)propylamino)thiazol-5-yl)isoindolin-1-one] |
| 0.05 to 1 µM | N[C@H](CNc1nc(O)c(-c2ccc(F)c(F)c2)s1)Cc1ccc(Cl)cc1 [Example 80, 2-((S)-2-Amino-3-(4-chlorophenyl)propylamino)-5-(3,4-difluorophenyl)thiazol-4-ol dihydrochloride] |
| 0.05 to 1 µM | N[C@H](CNc1ncc(-c2ccc3c(c2)C2(CC2)C(=O)N3)s1)Cc1ccc(C(F)(F)F)cc1 [Example 199, 5′-(2-((S)-2-amino-3-(4-(trifluoromethyl)phenyl)propylamino)thiazol-5-yl)spiro[cyclopropane-1,3′-indol]-2′(1′H)-one] |
